Starred links: 1 amine or outer side, 2 acyl side, 3 side chain; linkers in the order of their positions; H or OH if unused. Positions of bridges follow the written chain, without caps; N, C: chain ends. Residues, ends and D or L forms follow the SMILES beside them. Chains are numbered I, II in the order given. Ethylenediamine = C(CN[*:2])N[*:1]
Legend:
[1] = target: Mu-type opioid receptor (Cavia porcellus) (UniProt P97266); assay: In vitro potency of EM-2 was measured towards Opioid receptor mu 1 using guinea pig ileum assay; format: tissue-based
Chain of Mu-type opioid receptor (Cavia porcellus) (P97266 whole entry): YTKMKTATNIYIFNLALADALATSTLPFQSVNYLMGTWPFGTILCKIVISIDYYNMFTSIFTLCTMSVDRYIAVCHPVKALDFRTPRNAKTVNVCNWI

[2] = target: Delta-type opioid receptor (Mus musculus) (UniProt P32300); assay: In vitro potency of EM-2 measured towards Opioid receptor delta 1 using mouse vas deferens assay; format: functional, tissue-based
Chain of Delta-type opioid receptor (Mus musculus) (P32300 whole entry): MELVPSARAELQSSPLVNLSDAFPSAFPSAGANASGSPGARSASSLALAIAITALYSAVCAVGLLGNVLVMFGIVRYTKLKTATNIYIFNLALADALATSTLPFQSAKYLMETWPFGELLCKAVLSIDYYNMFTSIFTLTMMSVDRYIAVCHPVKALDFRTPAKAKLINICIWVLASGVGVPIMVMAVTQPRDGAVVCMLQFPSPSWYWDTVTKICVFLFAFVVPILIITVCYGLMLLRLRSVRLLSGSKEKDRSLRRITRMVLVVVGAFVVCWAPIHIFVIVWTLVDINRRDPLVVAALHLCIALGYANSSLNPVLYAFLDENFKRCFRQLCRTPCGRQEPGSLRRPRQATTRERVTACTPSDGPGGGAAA

[3] = target: Mu-type opioid receptor (Cavia porcellus) (UniProt P97266); assay: Relative potency of EM-2 measured towards Opioid receptor mu 1 assayed with [3H]DAMGO
[4] = target: Delta-type opioid receptor (Mus musculus) (UniProt P32300); assay: Ratio of IC50s against Opioid receptor delta 1 was measured in mouse vas deferens to that of guinea pig ileum; format: tissue-based
[5] = Selectivity for Opioid receptor mu 1 to that of Opioid receptor delta 1
[6] = target: Delta-type opioid receptor (Mus musculus) (UniProt P32300); assay: Relative potency of EM-2 measured towards Opioid receptor delta 1 assayed with [3H]DPDPE
Mu-type opioid receptor = Mu-type opioid receptor (Cavia porcellus, UniProt P97266); assay: In vitro inhibitory concentration against Opioid receptor mu 1 was measured using guinea pig ileum assay; format: tissue-based
Chain of Mu-type opioid receptor (P97266 whole entry): as the sequence (P97266 whole entry) above

[7] = Mean value of binding constant for Opioid receptors assayed with [3H]DAMGO
[8] = Mean value of binding constant for Opioid receptors assayed with [3H]DPDPE
[9] = target: Delta-type opioid receptor (Mus musculus, UniProt P32300); assay: In vitro inhibitory concentration against Opioid receptor delta 1 was measured using mouse vas deferens assay
Chain of Delta-type opioid receptor (P32300 whole entry): as the sequence (P32300 whole entry) above

Row | Molecule | Relative potency [1] | Relative potency [2] | Relative potency [3] | Ratio [4] | Selectivity [5] | Relative potency [6] | IC50 (Mu-type opioid receptor) [nM] | Ki [7] [nM] | Ki [8] [nM] | IC50 [9] [nM]
1 | H-YPFYPF-NH2 | 0.013 | 0.015 | 0.27 | 2.82 | 61.8 | 4.41 |  |  |  | 
2 | N[C@@H](Cc1ccc(O)cc1)C(=O)N1CCC[C@H]1C(=O)N[C@@H](Cc1ccccc1)C(=O)N[C@@H](Cc1ccccc1)C(=O)NNC(=O)[C@H](Cc1ccccc1)NC(=O)[C@H](Cc1ccccc1)NC(=O)[C@@H]1CCCN1C(=O)[C@@H](N)Cc1ccc(O)cc1 |  |  |  |  |  |  | 518 | 96.4 | 539 | 721
3 | N[C@@H](Cc1ccc(O)cc1)C(=O)N1CCC[C@H]1C(=O)N[C@@H](Cc1ccccc1)C(=O)NCCNC(=O)[C@H](Cc1ccccc1)NC(=O)[C@@H]1CCCN1C(=O)[C@@H](N)Cc1ccc(O)cc1 (I: H-Tyr-Pro-Phe / II: H-Tyr-Pro-Phe; linker I:C-II:C via Ethylenediamine) |  |  |  |  |  |  | 218 | 26.1 | 923 | 1010
4 | NC(=O)[C@H](Cc1ccccc1)NC(=O)[C@@H]1CCCN1C(=O)[C@H](Cc1ccc(O)cc1)NCCC(=O)[C@H](Cc1ccccc1)NC(=O)[C@@H]1CCCN1C(=O)[C@@H](N)Cc1ccc(O)cc1 | 0.067 | 0.048 | 0.32 | 4.64 | 35.4 | 9.06 |  |  |  | 
5 | N[C@@H](Cc1ccc(O)cc1)C(=O)N1CCC[C@H]1C(=O)N[C@@H](Cc1ccccc1)C(=O)N[C@@H](Cc1ccccc1)C(=O)NCCNC(=O)[C@H](Cc1ccccc1)NC(=O)[C@H](Cc1ccccc1)NC(=O)[C@@H]1CCCN1C(=O)[C@@H](N)Cc1ccc(O)cc1 |  |  |  |  |  |  | 3540 | 86.3 | 613 | 29
6 | COC(=O)[C@H](Cc1ccccc1)NC(=O)[C@H](Cc1ccccc1)NC(=O)[C@@H]1CCCN1C(=O)[C@@H](N)Cc1ccc(O)cc1 | 0.35 | 1.3 | 0.91 | 0.88 | > 1110 |  | 42.1 | 9.07 | > 10000 | 37.2
7 | NNC(=O)[C@H](Cc1ccccc1)NC(=O)[C@H](Cc1ccccc1)NC(=O)[C@@H]1CCCN1C(=O)[C@@H](N)Cc1ccc(O)cc1 | 0.11 | 0.26 | 0.88 | 1.4 | > 1070 |  | 132 | 9.35 | > 10000 | 185
8 | N[C@@H](Cc1ccc(O)cc1)C(=O)N1CCC[C@H]1C(=O)N[C@@H](Cc1ccccc1)C(=O)NNC(=O)[C@H](Cc1ccccc1)NC(=O)[C@@H]1CCCN1C(=O)[C@@H](N)Cc1ccc(O)cc1 |  |  |  |  |  |  | 1140 | 30.7 | 1900 | 3200
9 | N[C@@H](Cc1ccc(O)cc1)C(=O)N1CCC[C@H]1C(=O)N[C@@H](Cc1ccccc1)C(=O)N[C@@H](Cc1ccccc1)C(=O)NCCCCNC(=O)[C@H](Cc1ccccc1)NC(=O)[C@H](Cc1ccccc1)NC(=O)[C@@H]1CCCN1C(=O)[C@@H](N)Cc1ccc(O)cc1 |  |  |  |  |  |  |  | 168 | 7020 | > 10000
10 | NC(=O)[C@H](Cc1ccccc1)NC(=O)[C@@H]1CCCN1C(=O)[C@@H](N)Cc1ccc(O)cc1 (H-Tyr-Pro-Phe-NH2) |  |  | 0.059 |  | > 71.4 |  |  | 140 | > 10000 | 
